Laboratory results taken from the NIST ThermoML archive (doi:10.1016/j.jct.2008.01.009).
Numbers after ± are expanded uncertainties.

Tests used:
[1] = molar heat capacity at constant pressure; conditions: 101.33 kPa, Vacuum adiabatic calorimetry
[2] = molar heat capacity at saturation pressure

C1=Cc2ccccc2CC1 [1,2-dihydronaphthalene]
Conditions | molar heat capacity [J/K/mol] | molar heat capacity at constant pressure [J/K/mol]
[1], 5 K, Crystal 3 | – | 0.28 ± 0.02
[1], 10 K, Crystal 3 | – | 2.69 ± 0.03
[1], 20 K, Crystal 3 | – | 13.26 ± 0.083
[1], 30 K, Crystal 3 | – | 24.12 ± 0.091
[1], 40 K, Crystal 3 | – | 33.18 ± 0.11
[1], 50 K, Crystal 3 | – | 40.87 ± 0.12
[1], 60 K, Crystal 3 | – | 47.15 ± 0.13
[1], 70 K, Crystal 3 | – | 52.76 ± 0.15
[1], 80 K, Crystal 3 | – | 57.88 ± 0.16
[1], 90 K, Crystal 3 | – | 62.79 ± 0.27
[1], 100 K, Crystal 3 | – | 67.58 ± 0.27
[1], 120 K, Crystal 3 | – | 77.47 ± 0.27
[1], 140 K, Crystal 3 | – | 90.29 ± 0.29
[1], 146 K, Crystal 2 | – | 95.59 ± 0.3
[1], 146 K, Crystal 3 | – | 95.33 ± 0.3
[1], 160 K, Crystal 2 | – | 104.39 ± 0.31
[1], 180 K, Crystal 2 | – | 115.29 ± 0.32
[1], 194.4 K, Crystal 1 | – | 126.5 ± 0.32
[1], 194.4 K, Crystal 2 | – | 124.59 ± 0.32
[1], 200 K, Crystal 1 | – | 129.36 ± 0.33
[1], 220 K, Crystal 1 | – | 141.06 ± 0.34
[1], 240 K, Crystal 1 | – | 155.01 ± 0.36
[1], 250 K, Liquid | – | 191.22 ± 0.39
[1], 260 K, Crystal 1 | – | 171.24 ± 0.37
[1], 260 K, Liquid | – | 195.03 ± 0.4
[1], 264.38 K, Crystal 1 | – | 175.09 ± 0.37
[1], 264.38 K, Liquid | – | 196.72 ± 0.4
[1], 280 K, Liquid | – | 202.59 ± 0.4
[1], 298.15 K, Liquid | – | 209.64 ± 0.41
[1], 300 K, Liquid | – | 210.37 ± 0.41
[1], 320 K, Liquid | – | 218.52 ± 0.42
[1], 340 K, Liquid | – | 226.88 ± 0.42
[1], 360 K, Liquid | – | 235.35 ± 0.43
[1], 380 K, Liquid | – | 243.89 ± 0.44
[1], 400 K, Liquid | – | 252.39 ± 0.45
[1], 420 K, Liquid | – | 260.86 ± 0.46
[1], 440 K, Liquid | – | 269.35 ± 0.47
[1], 460 K, Liquid | – | 277.87 ± 0.47
[1], 480 K, Liquid | – | 286.36 ± 0.49
[1], 500 K, Liquid | – | 294.85 ± 0.5
[2], 5.476 K, Crystal 3, Vacuum adiabatic calorimetry | 0.37 ± 0.02 | –
[2], 6.388 K, Crystal 3, Vacuum adiabatic calorimetry | 0.64 ± 0.02 | –
[2], 7.291 K, Crystal 3, Vacuum adiabatic calorimetry | 0.989 ± 0.02 | –
[2], 8.25 K, Crystal 3, Vacuum adiabatic calorimetry | 1.48 ± 0.02 | –
[2], 9.249 K, Crystal 3, Vacuum adiabatic calorimetry | 2.12 ± 0.03 | –
[2], 10.3 K, Crystal 3, Vacuum adiabatic calorimetry | 2.94 ± 0.03 | –
[2], 11.47 K, Crystal 3, Vacuum adiabatic calorimetry | 3.91 ± 0.04 | –
[2], 12.77 K, Crystal 3, Vacuum adiabatic calorimetry | 5.18 ± 0.05 | –
[2], 14.21 K, Crystal 3, Vacuum adiabatic calorimetry | 6.67 ± 0.06 | –
[2], 15.81 K, Crystal 3, Vacuum adiabatic calorimetry | 8.431 ± 0.07 | –
[2], 17.59 K, Crystal 3, Vacuum adiabatic calorimetry | 10.49 ± 0.07 | –
[2], 19.57 K, Crystal 3, Vacuum adiabatic calorimetry | 12.77 ± 0.083 | –
[2], 21.76 K, Crystal 3, Vacuum adiabatic calorimetry | 15.28 ± 0.091 | –
[2], 24.19 K, Crystal 3, Vacuum adiabatic calorimetry | 18 ± 0.1 | –
[2], 26.87 K, Crystal 3, Vacuum adiabatic calorimetry | 20.93 ± 0.1 | –
[2], 29.83 K, Crystal 3, Vacuum adiabatic calorimetry | 23.95 ± 0.091 | –
[2], 33.12 K, Crystal 3, Vacuum adiabatic calorimetry | 27.11 ± 0.1 | –
[2], 36.82 K, Crystal 3, Vacuum adiabatic calorimetry | 30.48 ± 0.1 | –
[2], 40.93 K, Crystal 3, Vacuum adiabatic calorimetry | 33.95 ± 0.11 | –
[2], 45.51 K, Crystal 3, Vacuum adiabatic calorimetry | 37.56 ± 0.12 | –
[2], 50.62 K, Crystal 3, Vacuum adiabatic calorimetry | 41.31 ± 0.12 | –
[2], 55.37 K, Crystal 3, Vacuum adiabatic calorimetry | 44.29 ± 0.13 | –
[2], 56.32 K, Crystal 3, Vacuum adiabatic calorimetry | 44.86 ± 0.13 | –
[2], 60.82 K, Crystal 3, Vacuum adiabatic calorimetry | 47.66 ± 0.13 | –
[2], 66.99 K, Crystal 3, Vacuum adiabatic calorimetry | 51.14 ± 0.14 | –
[2], 73.79 K, Crystal 3, Vacuum adiabatic calorimetry | 54.73 ± 0.15 | –
[2], 81.31 K, Crystal 3, Vacuum adiabatic calorimetry | 58.53 ± 0.16 | –
[2], 89.62 K, Crystal 3, Vacuum adiabatic calorimetry | 62.62 ± 0.17 | –
[2], 92.5 K, Crystal 3, Vacuum adiabatic calorimetry | 64 ± 0.27 | –
[2], 98.63 K, Crystal 3, Vacuum adiabatic calorimetry | 66.92 ± 0.27 | –
[2], 101.72 K, Crystal 3, Vacuum adiabatic calorimetry | 68.45 ± 0.27 | –
[2], 108.13 K, Crystal 3, Vacuum adiabatic calorimetry | 71.57 ± 0.27 | –
[2], 111.45 K, Crystal 3, Vacuum adiabatic calorimetry | 73.19 ± 0.27 | –
[2], 116.48 K, Crystal 3, Vacuum adiabatic calorimetry | 75.72 ± 0.27 | –
[2], 121.2 K, Crystal 3, Vacuum adiabatic calorimetry | 78.05 ± 0.27 | –
[2], 122.5 K, Crystal 3, Vacuum adiabatic calorimetry | 78.89 ± 0.28 | –
[2], 127.59 K, Crystal 3, Vacuum adiabatic calorimetry | 81.65 ± 0.28 | –
[2], 129.07 K, Crystal 3, Vacuum adiabatic calorimetry | 82.45 ± 0.28 | –
[2], 132.84 K, Crystal 3, Vacuum adiabatic calorimetry | 84.88 ± 0.28 | –
[2], 138.14 K, Crystal 3, Vacuum adiabatic calorimetry | 89.05 ± 0.29 | –
[2], 143.36 K, Crystal 3, Vacuum adiabatic calorimetry | 92.96 ± 0.29 | –
[2], 148.64 K, Crystal 2 | 97.43 ± 0.6 | –
